Molecules are shown by their SMILES.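 Briefly, cells in 96-well plates were exposed to five compound concentrations for 48 h, and endpoints were estimated by linear interpolation. At the GI50, growth is halved. TGI: concentration producing complete growth inhibition.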

Holding throughout (assay): NCI tumour cell line growth inhibition, 48 h
Assay [1] concerns HCC-2998 colon.
The test system of assay [2] is SF-268 CNS.
For assay [3], the system named is NCI-H23 lung.
The subject of assay [4] is SF-295 CNS.
The subject of assay [5] is 786-0 renal.
Assay [6] concerns SK-MEL-28 melanoma.
Assay [7] has as its system UACC-257 melanoma.
Assay [8] has as its system HCT-15 colon.
The subject of assay [9] is K-562 leukemia.
Assay [10] relates to KM12 colon.

As to `Cc1ccc(/C=C2\CN(C(=O)C(Cl)Cl)C/C(=C\c3ccc(C)cc3)C2=O)cc1`, the GI50 is 0.176 µM in [1]; 0.331 µM in [2]; 0.221 µM in assay [3]; 0.223 µM in [4]; 0.194 µM in assay [5]; 0.319 µM in [6]. The GI50 in assay [7] was 0.346 µM; in assay [8], 0.185 µM; in assay [9] it was 0.142 µM; in assay [10], 0.193 µM. The TGI in assay [1] was found to be 0.33 µM; in [2] it was 2.43 µM; in assay [3] it was 0.478 µM; in assay [4] it was 0.665 µM; in assay [5] it was 0.397 µM; in [6], 1.19 µM. Also, the TGI is 3.16 µM in assay [7], 0.638 µM in [8], more than 100 µM in assay [9] and 0.48 µM in [10].

For `CCCCCCCCCCCCCCCCNCCCN(C)CCCN`, the TGI in assay [1] came to 33.4 µM; in [2], 34.9 µM; in [3] it was 34.1 µM; in [4], 33.4 µM; in assay [5], 28.9 µM; in assay [6] it was 26.6 µM. In addition, the TGI in assay [7] was found to be 40.4 µM; in [8], 32.7 µM; in assay [9] it was 49.5 µM; in [10] it was 33 µM.

As for `C#CC[N+](C)(CC#C)CC#C`, the TGI in [1], in assay [2], in assay [3], in [4], in [5] and in assay [6] was more than 100 µM each time. The TGI in [7], in assay [8], in [9] and in [10] was more than 100 µM each time.

Regarding `CCCCC(C)C(OC(=O)CC(CC(=O)O)C(=O)O)C(CC(C)CC(O)CCCCC(O)CC(O)C(C)N)OC(=O)CC(CC(=O)O)C(=O)O` (stereo not given), the TGI in assay [1], in assay [2], in assay [3], in [4], in assay [5] and in assay [6] was more than 100 µM in each case. In addition, the TGI in assay [7], in assay [8], in [9] and in assay [10] was more than 100 µM in each case.

As to `COc1cccc2c1-c1c(c3ccc([N+](=O)[O-])cc3c(=O)n1CCCN)C2=O`, the GI50 in assay [1] was 3.02 µM; in [2] it was 1.15 µM; in assay [3] it was 1.39 µM; in assay [4], 3.1 µM; in assay [5] it was 0.479 µM; in assay [6], 1.86 µM. For the same molecule, the GI50 in [7] is 17.9 µM; in [8], 1.4 µM; in assay [9] it was 0.218 µM; in [10] it was 2.02 µM. Besides, the TGI in [1] was determined as 7 µM; in [2], 2.94 µM; in [3], 3.01 µM; in [4], 14.8 µM; in assay [5] it was 0.987 µM; in assay [6], 3.81 µM. For the same molecule, the TGI in assay [7] is 44.4 µM; in [8] it was 3.37 µM; in assay [9], 1.12 µM; in assay [10] it was more than 24.1 µM.

For `Cc1cc(Nc2nc(-c3cccnc3)nc3ccccc23)n[nH]1`, the GI50 in assay [1] is 21.5 µM; in assay [2], 2.47 µM; in [3] it was 5.16 µM; in assay [4], 2.72 µM; in [5], 1.31 µM; in assay [6] it was 10.1 µM. Further, the GI50 was 42.2 µM in [7], 0.512 µM in assay [8], 3.07 µM in assay [9] and 0.206 µM in assay [10]. The TGI in [1] is more than 100 µM; in assay [2] it was more than 67.2 µM; in [3], more than 100 µM; in assay [4], more than 100 µM; in assay [5], more than 100 µM; in [6], more than 100 µM. The TGI in [7] was more than 100 µM; in assay [8], more than 100 µM; in assay [9], more than 100 µM; in [10], 99.1 µM.

In the case of `CCC(c1ccc(OC)cc1)C(CC)c1ccc(O)c(CN2CCN(C)CC2)c1` (stereo not given), the GI50 in assay [1] is 2.15 µM; in assay [2], 7.66 µM; in [3], 6.37 µM; in assay [4] it was 2.06 µM; in [5], 3.4 µM; in assay [6], 2.16 µM. For the same molecule, the GI50 in [7] is 2.1 µM; in [8], 2.66 µM; in assay [9], 2.71 µM; in assay [10], 3.68 µM. The TGI in [1] was found to be 4.62 µM; in assay [2], 21.5 µM; in assay [3] it was 20.6 µM; in assay [4] it was 3.95 µM; in [5] it was 10.9 µM; in assay [6] it was 4.23 µM. Besides, the TGI in [7] stood at 4.97 µM; in [8], 7.67 µM; in assay [9], 14.8 µM; in assay [10] it was 12 µM.

Regarding `O=C(CSc1ncn[nH]1)C[P+](c1ccccc1)(c1ccccc1)c1ccccc1`, the TGI in assay [1], in assay [2], in [3], in assay [4], in [5] and in assay [6] was more than 100 µM each time. Besides, the TGI in assay [7], in [8], in assay [9] and in assay [10] was more than 100 µM in each case.

Regarding `CCOc1cc(Br)c(C(C)NC(=O)c2cccc(OC)c2)cc1OCC` (stereo not given), the GI50 is 33.7 µM in assay [1]; 22.9 µM in [2]; 29.1 µM in assay [3]; 8.3 µM in [4]; 20.4 µM in [5]; 12 µM in assay [6]. Further, the GI50 in [7] was 22.5 µM; in [8] it was 5.82 µM; in [9], 3.6 µM; in assay [10], 7.32 µM. In addition, the TGI in assay [1] was more than 100 µM; in [2] it was more than 100 µM; in assay [3] it was more than 100 µM; in assay [4] it was more than 89.5 µM; in assay [5], more than 100 µM; in assay [6] it was more than 100 µM. Besides, the TGI in [7], in assay [8], in assay [9] and in [10] was more than 100 µM throughout.

Values taken from PubChem BioAssay (NCI).
